# Patent US20050277142A1, “Recombinant cell line for the detection of dioxin-like compounds based on the expression of luciferase gene” (priority 2004, published 2005)
# Assays:
# [1] = cited from earlier work
# [2] = tested on: aryl hydrocarbon receptor (AHR); details: 2,3,7,8-TCDD set to 1; cited from earlier work
# [3] = tested on: dioxin-response elements (DREs)-luciferase in Hepa1c1c7-MP cells; experiment: luciferase light intensity bioassay in transfected cell line Hepa1c1c7-MP; type: cell-based, mouse
# Experimental: (§1) The transfected cells (4×10^5 cells/well) were placed in a 24 well-culture plate. To each well was added 1 mL of culture medium (DMEM+10% FBS). Thereafter, the culture plate was placed in a constant-temperature incubator set at 37° C. and 5% CO2 for two hours to permit cell adhesion.
# (§2) The Dioxin (2,3,7,8-TCDD) stock solution with a concentration of 10 μg/mL was subjected to 10-fold serial dilution. 3.22 μl of each diluted solution was taken and added to each well of the culture plate, such that the final concentrations of dioxin in the experimental groups are 10 nM, 1 nM, 100 pM, […], 10 pM, 1 pM and 0.1 pM, respectively. Each experimental group was prepared in quadruplicate. The normal control group was not subjected to any treatment, whereas the solvent control group was treated using 3.22 μl of DMSO. […]
# (§3) 100 μl of the lysate obtained in each group was taken and added to each well of a non-transparent 96-well plate, followed by addition of 50 μl of luciferin (which is included in the Luciferase Assay System, (Cat#1500), Promega Cooperation). Finally, the plate was sent to a Beckman coulter DU640B spectrophotometer (set at PMT:1100; read length:0.5; and Gain:1˜100) for automatic detection of the light intensity within 20 seconds. The experimental results thus obtained were analyzed and plotted using statistical analysis, so as to determine whether the results have statistic significance. […]
# [4] = tested on: dioxin-response elements (DREs)-luciferase in Hepa1c1c7-M4P2 cells; experiment: luciferase light intensity bioassay in transfected cell line Hepa1c1c7-M4P2; type: cell-based, mouse
# Experimental: as §1, §2, §3
# [5] = 100 pM 2,3,7,8-TCDD, 5, 10, 15 and 20 hours tested
Compound,I-TEF [2],further results
"2,3,7,8-tetrachloro-dibenzo-p-dioxin [2,3,7,8-TCDD]",–,water solubility [1]: 0.0193 ng/mL
"Clc1cc2c(c(Cl)c1Cl)Oc1c(Cl)c(Cl)c(Cl)c(Cl)c1O2 [1,2,3,4,6,7,8-HpCDD]",0.01,–
"Clc1cc2c(oc3c(Cl)c(Cl)c(Cl)c(Cl)c32)c(Cl)c1Cl [1,2,3,4,6,7,8-HpCDF]",0.01,–
"Clc1cc2oc3c(Cl)c(Cl)c(Cl)c(Cl)c3c2c(Cl)c1Cl [1,2,3,4,7,8,9-HpCDF]",0.01,–
"Clc1cc2c(cc1Cl)Oc1c(Cl)c(Cl)c(Cl)c(Cl)c1O2 [1,2,3,4,7,8-HxCDD]",0.1,–
"Clc1cc2oc3c(Cl)c(Cl)c(Cl)c(Cl)c3c2cc1Cl [1,2,3,4,7,8-HxCDF]",0.1,–
"Clc1cc2c(c(Cl)c1Cl)Oc1cc(Cl)c(Cl)c(Cl)c1O2 [1,2,3,6,7,8-HxCDD]",0.1,–
"Clc1cc2c(oc3cc(Cl)c(Cl)c(Cl)c32)c(Cl)c1Cl [1,2,3,6,7,8-HxCDF]",0.1,–
"Clc1cc2c(c(Cl)c1Cl)Oc1c(cc(Cl)c(Cl)c1Cl)O2 [1,2,3,7,8,9-HxCDD]",0.1,–
"Clc1cc2oc3cc(Cl)c(Cl)c(Cl)c3c2c(Cl)c1Cl [1,2,3,7,8,9-HxCDF]",0.1,–
"Clc1cc2c(cc1Cl)Oc1c(cc(Cl)c(Cl)c1Cl)O2 [1,2,3,7,8-PeCDD]",0.5,–
"Clc1cc2oc3cc(Cl)c(Cl)c(Cl)c3c2cc1Cl [1,2,3,7,8-PeCDF]",0.05,–
"Clc1cc2c(oc3c(Cl)c(Cl)c(Cl)cc32)c(Cl)c1Cl [2,3,4,6,7,8-HxCDF]",0.1,–
"Clc1cc2c(cc1Cl)Oc1cc(Cl)c(Cl)cc1O2 [2,3,7,8-TCDD, 2,3,7,8-tetrachloro-dibenzo-p-dioxin]",1,"dioxin treatment time giving the most stable and the optimal light intensity result [3, 5]: 20 h; lowest limit of dioxin detection (significant light intensity changes vs controls) ([3]; 15 hours treatment): 5 pM; dioxin treatment time giving the most stable and the optimal light intensity result [4, 5]: 15 h; lowest limit of dioxin detection (obvious light intensity changes vs controls) ([4]; 15 hours treatment): 5 pM"
"Clc1cc2oc3cc(Cl)c(Cl)cc3c2cc1Cl [2,3,7,8-TCDF]",0.1,–
Clc1c(Cl)c(Cl)c2c(c1Cl)Oc1c(Cl)c(Cl)c(Cl)c(Cl)c1O2 [OCDD],0.001,–
Clc1c(Cl)c(Cl)c2c(oc3c(Cl)c(Cl)c(Cl)c(Cl)c32)c1Cl [OCDF],0.001,–
